These are literature values, as cited in US20100121052A1, “Novel compounds for treating proliferative diseases” (priority 2008, published 2010).

For this series, the system named is prostate cancer cell lines. The settings on record: background statement.

Take `CC(=O)O[C@@H]1[C@@H](OC(C)=O)[C@@H](O)[C@H](Oc2c(-c3ccc(O)cc3)oc3cc(O)cc(O)c3c2=O)O[C@H]1C` [SL0101]: the “inhibition of proliferation of multiple prostate cancer cell lines” value is on record as “inhibit the proliferation”.
